ChEMBL document CHEMBL1201862, “PubChem BioAssay data set” (2004)
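Five compound concentrations were applied to cells in 96-well plates for 48 hours; endpoints were derived by simple linear interpolation of the resulting dose-response curve. GI50 marks 50% less growth.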 The source made the active and inactive calls. No stated cut-off is given here; in the data, active = GI50 up to about 1.1 µM and inactive = higher.

What was measured:
Test in all cases: inhibition of tumour cell growth, NCI panel, 48 h
[1] = test system: DU-145
[2] = test system: HCT-116
[3] = test system: HL-60
[4] = test system: HOP-62
[5] = test system: HOP-92
[6] = test system: LOX IMVI
[7] = test system: MDA-MB-231
[8] = test system: NCI-H460
[9] = test system: NCI-H522
[10] = test system: OVCAR-4
[11] = test system: RPMI-8226
[12] = test system: RXF 393
[13] = test system: SF-268
[14] = test system: SK-MEL-28
[15] = test system: SK-MEL-2
[16] = test system: SN12C
[17] = test system: SNB-75
[18] = test system: SR
[19] = test system: T47D
[20] = test system: UO-31

SMILES | GI50 [1] | GI50 [2] | GI50 [3] | GI50 [4] | GI50 [5] | GI50 [6] | GI50 [7] | GI50 [8] | GI50 [9] | GI50 [10] | GI50 [11] | GI50 [12] | GI50 [13] | GI50 [14] | GI50 [15] | GI50 [16] | GI50 [17] | GI50 [18] | GI50 [19] | GI50 [20]
CC[n+]1c(/C=C/c2ccc(N(CCCl)CCCl)cc2)ccc2cc(NC(=O)/C=C/c3ccccc3)ccc21 | 0.288 µM (active) | 0.317 µM (active) | 0.115 µM (active) | 0.318 µM (active) | 0.251 µM (active) | 0.329 µM (active) | 0.32 µM (active) | 0.245 µM (active) | 0.218 µM (active) | 0.254 µM (active) | 0.218 µM (active) | 0.315 µM (active) | 0.393 µM (active) | 0.762 µM (active) | 0.431 µM (active) | 0.261 µM (active) | 0.131 µM (active) | 0.189 µM (active) | 0.249 µM (active) | 16.6 µM (inactive)
N=C(N)NC(=N)Nc1ccc(S(=O)(=O)O)cc1 | > 100 µM (inactive) | > 100 µM (inactive) | > 100 µM (inactive) | > 100 µM (inactive) | 77.8 µM (inactive) | > 100 µM (inactive) | > 100 µM (inactive) | > 100 µM (inactive) | > 100 µM (inactive) | > 100 µM (inactive) | > 100 µM (inactive) | > 100 µM (inactive) | > 100 µM (inactive) | > 100 µM (inactive) | > 100 µM (inactive) | > 100 µM (inactive) | > 100 µM (inactive) | > 100 µM (inactive) | > 100 µM (inactive) | > 100 µM (inactive)
Cc1cc2sc(C)[n+](CCCOS(=O)(=O)[O-])c2cc1C | > 100 µM (inactive) | > 100 µM (inactive) | > 100 µM (inactive) | > 100 µM (inactive) | > 100 µM (inactive) | > 100 µM (inactive) | > 100 µM (inactive) | > 100 µM (inactive) | 40.6 µM (inactive) | > 100 µM (inactive) | 53 µM (inactive) | > 100 µM (inactive) | 62.5 µM (inactive) | > 100 µM (inactive) | > 100 µM (inactive) | > 100 µM (inactive) | > 100 µM (inactive) | 66.2 µM (inactive) | 58.6 µM (inactive) | > 100 µM (inactive)
CC1(C)OCC2OC(n3cnc4c(N)nc(Cl)nc43)C(OS(C)(=O)=O)C2O1 (stereo not given) | > 100 µM (inactive) | > 100 µM (inactive) | > 100 µM (inactive) | > 100 µM (inactive) | 45.3 µM (inactive) | > 100 µM (inactive) | > 100 µM (inactive) | > 100 µM (inactive) | > 100 µM (inactive) | > 100 µM (inactive) | > 100 µM (inactive) | > 100 µM (inactive) | > 100 µM (inactive) | > 100 µM (inactive) | > 100 µM (inactive) | > 100 µM (inactive) | > 100 µM (inactive) | > 100 µM (inactive) | > 100 µM (inactive) | > 100 µM (inactive)
O=C1C(Br)=C(c2ccccc2)C(c2ccccc2)=C1c1ccccc1 | 13.2 µM (inactive) | 1.9 µM (inactive) | 0.67 µM (active) | 14.2 µM (inactive) | 1.69 µM (inactive) | 1.33 µM (inactive) | 1.79 µM (inactive) | 4.83 µM (inactive) | 0.753 µM (active) | 1.99 µM (inactive) | 1.45 µM (inactive) | 1.99 µM (inactive) | 3.44 µM (inactive) | 2.61 µM (inactive) | 4.41 µM (inactive) | 1.95 µM (inactive) | 3.63 µM (inactive) | 0.979 µM (active) | 2.37 µM (inactive) | 5.5 µM (inactive)
Nc1nnnn1NC(=O)NCCCl | > 10 µM (inactive) | > 10 µM (inactive) | > 10 µM (inactive) | > 10 µM (inactive) | > 10 µM (inactive) | > 10 µM (inactive) | > 10 µM (inactive) | > 10 µM (inactive) | > 10 µM (inactive) | > 10 µM (inactive) | > 10 µM (inactive) | > 10 µM (inactive) | > 10 µM (inactive) | > 10 µM (inactive) | > 10 µM (inactive) | > 10 µM (inactive) | > 10 µM (inactive) | > 10 µM (inactive) | > 10 µM (inactive) | > 10 µM (inactive)
O=C(CC(O)(C(F)(F)Cl)C(F)(F)Cl)CC(O)(C(F)(F)Cl)C(F)(F)Cl | 0.515 µM (active) | 1.19 µM (inactive) | 1.78 µM (inactive) | 1.98 µM (inactive) | 0.75 µM (active) | 3.83 µM (inactive) | 2.05 µM (inactive) | 1.24 µM (inactive) | 1.2 µM (inactive) | 1.33 µM (inactive) | 0.516 µM (active) | 1.8 µM (inactive) | 1.5 µM (inactive) | 1.95 µM (inactive) | 1.13 µM (inactive) | 4.65 µM (inactive) | 1.76 µM (inactive) | 2.65 µM (inactive) | 0.647 µM (active) | 0.929 µM (active)
COC(=O)/C=C(\S/C(=N\n1cc(C(=O)OC)c(C(=O)OC)c1-c1ccc(C)cc1)c1ccc(C)cc1)C(=O)OC | 6.78 µM (inactive) | 1.97 µM (inactive) | 4.62 µM (inactive) | 16.9 µM (inactive) | 2.8 µM (inactive) | 2.84 µM (inactive) | 5.25 µM (inactive) | 17.7 µM (inactive) | 1.67 µM (inactive) | 1.58 µM (inactive) | 1.44 µM (inactive) | 5.47 µM (inactive) | 16.1 µM (inactive) | 5.78 µM (inactive) | 6.12 µM (inactive) | 6.18 µM (inactive) | 11.5 µM (inactive) | 1.16 µM (inactive) | 1.03 µM (active) | 2.52 µM (inactive)
